Values joined by “and” are separate entries in the source; they are usually repeats but may differ in a detail not shown here. Identical values can stand only once. ± gives the expanded uncertainty stated by the source.
Conditions: Crystal

[Cl][Er]([Cl])[Cl] [erbium trichloride]
Conditions | vapor or sublimation pressure
880 K | 1.07e-05 ± 3.2e-06 kPa
892 K | 1.58e-05 ± 4.7e-06 kPa
897 K | 2.14e-05 ± 6.4e-06 kPa
903 K | 2.69e-05 ± 8.1e-06 kPa
907 K | 1.7e-05 ± 5.1e-06 kPa and 3.24e-05 ± 9.7e-06 kPa
913 K | 4.27e-05 ± 1.3e-05 kPa
916 K | 5.13e-05 ± 1.5e-05 kPa
920 K | 3.39e-05 ± 1e-05 kPa
921 K | 5.89e-05 ± 1.8e-05 kPa
923 K | 3.39e-05 ± 1e-05 kPa
925 K | 4.27e-05 ± 1.3e-05 kPa and 6.92e-05 ± 2.1e-05 kPa
929 K | 5.01e-05 ± 1.5e-05 kPa
932 K | 5.01e-05 ± 1.5e-05 kPa and 4.27e-05 ± 1.3e-05 kPa
933 K | 0.0001023 ± 3.1e-05 kPa
935 K | 5.01e-05 ± 1.5e-05 kPa and 0.0001072 ± 3.2e-05 kPa
936 K | 6.76e-05 ± 2e-05 kPa
943 K | 0.0001445 ± 4.3e-05 kPa [middle of 4 runs]
948 K | 0.0001349 ± 4.1e-05 kPa
949 K | 8.51e-05 ± 2.5e-05 kPa
950 K | 0.0001995 ± 6e-05 kPa
951 K | 0.0001995 ± 6e-05 kPa
952 K | 0.0001175 ± 3.5e-05 kPa
953 K | 0.0001349 ± 4.1e-05 kPa
954 K | 0.0001 ± 3e-05 kPa
958 K | 0.0001514 ± 4.5e-05 kPa and 0.0001862 ± 5.6e-05 kPa
959 K | 0.0002754 ± 8.3e-05 kPa
960 K | 0.0002754 ± 8.3e-05 kPa
963 K | 0.0001698 ± 5.1e-05 kPa [middle of 4 runs]
968 K | 0.0002188 ± 6.6e-05 kPa and 0.0002692 ± 8.1e-05 kPa and 0.0003715 ± 0.00011 kPa
970 K | 0.0002188 ± 6.6e-05 kPa and 0.0003802 ± 0.00011 kPa
972 K | 0.0002692 ± 8.1e-05 kPa
976 K | 0.0002344 ± 7e-05 kPa
977 K | 0.0003981 ± 0.00012 kPa and 0.0002455 ± 7.4e-05 kPa
978 K | 0.0003236 ± 9.7e-05 kPa
981 K | 0.0003715 ± 0.00011 kPa
983 K | 0.0004898 ± 0.00015 kPa
986 K | 0.0004365 ± 0.00013 kPa
988 K | 0.0003467 ± 0.0001 kPa
990 K | 0.000631 ± 0.00019 kPa and 0.0004074 ± 0.00012 kPa and 0.0005012 ± 0.00015 kPa
995 K | 0.0005754 ± 0.00017 kPa and 0.000631 ± 0.00019 kPa
997 K | 0.0008318 ± 0.00025 kPa
998 K | 0.0004786 ± 0.00014 kPa
999 K | 0.0006761 ± 0.0002 kPa
1003 K | 0.0006607 ± 0.0002 kPa and 0.0008511 ± 0.00026 kPa
1004 K | 0.0007762 ± 0.00023 kPa
1008 K | 0.0009333 ± 0.00028 kPa and 0.0006761 ± 0.0002 kPa
1012 K | 0.001071 ± 0.00032 kPa
1013 K | 0.001097 ± 0.00033 kPa
1014 K | 0.001412 ± 0.00042 kPa
1016 K | 0.001071 ± 0.00032 kPa
1017 K | 0.001288 ± 0.00039 kPa
1018 K | 0.0009333 ± 0.00028 kPa
1021 K | 0.001445 ± 0.00043 kPa
1022 K | 0.001514 ± 0.00045 kPa
1025 K | 0.00195 ± 0.00058 kPa and 0.001698 ± 0.00051 kPa
1028 K | 0.001318 ± 0.0004 kPa
1030 K | 0.001514 ± 0.00045 kPa and 0.00195 ± 0.00059 kPa
1031 K | 0.002138 ± 0.00064 kPa
1033 K | 0.002512 ± 0.00075 kPa
1034 K | 0.002512 ± 0.00075 kPa
1037 K | 0.002455 ± 0.00074 kPa
1040 K | 0.002818 ± 0.00085 kPa and 0.003162 ± 0.00095 kPa and 0.002344 ± 0.0007 kPa
